Results published in PMC7448123, “Ru(II) Complexes Bearing O, O-Chelated Ligands Induced Apoptosis in A549 Cells through the Mitochondrial Apoptotic Pathway” (Bioinorganic Chemistry and Applications, 2020).

Experiments:
MCF-7 (breast cancer) = experiment: MTT cytotoxicity assay, MCF-7; type: cell-based, human
Description: (§1) All cell lines were cultured in Roswell Park Memorial Institute 1640 culture media supplemented with 10% fetal bovine serum and incubated at 37°C in a 5% CO2 incubator. The IC50 values in Table 1 were measured by MTT assay according to our previous report [16].
(§2) The cell viability was obtained by the MTT assay.

[1] = test system: HeLa (human cervical cancer); experiment: MTT cytotoxicity assay, HeLa; type: cell-based; settings: 48 h
Description: as §1, §2

[2] = test system: HepG2 (human hepatocellular carcinoma); experiment: MTT cytotoxicity assay, HepG2; type: cell-based
Description: as §1, §2

[3] = test system: A549 (human lung carcinoma); experiment: MTT cytotoxicity assay, A549; type: cell-based; settings: 48 h, MTT
Description: as §1, §2

Compound: [Cl-].[Cl-].[Ru+2].c1ccc(-c2ccnc3c2ccc2c(-c4ccccc4)ccnc23)cc1.c1ccc(-c2ccnc3c2ccc2c(-c4ccccc4)ccnc23)cc1 [Ru(dip)2Cl2, cis-[Ru(dip)2Cl2]]
- IC50 (MCF-7 (breast cancer); 48 h): 135 ± 7.9 µM
- IC50 [1]: 116 ± 6.8 µM
- IC50 ([2]; 48 h): 108 ± 5.4 µM
- IC50 [3]: 138 ± 6.7 µM

Compound: Cc1ccc2ccc3ccc(C)nc3c2n1.Cc1ccc2ccc3ccc(C)nc3c2n1.[Cl-].[Cl-].[Ru+2] [Ru(dmp)2Cl2, cis-[Ru(dmp)2Cl2]]
- IC50 (MCF-7 (breast cancer); 48 h): > 200 µM
- IC50 [1]: > 200 µM
- IC50 ([2]; 48 h): 169 ± 6.2 µM
- IC50 [3]: > 200 µM

Compound: O=C(O)c1ccccc1O [SA, salicylic acid]
- IC50 (MCF-7 (breast cancer); Homo sapiens, MCF7, 48 h): > 200 µM
- IC50 ([1]; Homo sapiens, HeLa): > 200 µM
- IC50 ([2]; Homo sapiens, HepG2, 48 h): > 200 µM
- IC50 ([3]; Homo sapiens, A549): > 200 µM
